Assay results reported in PubChem BioAssay (NCI).
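Method: 48-hour compound exposure of cells in 96-well plates, five concentrations, linear interpolation of endpoints. GI50 marks 50% less growth. TGI: concentration producing complete growth inhibition.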

Experiments:
Test in all cases: NCI tumour cell line growth inhibition, 48 h
786-0 renal = system: 786-0 renal
A498 renal = system: A498 renal
A549 NSCLC = system: A549 NSCLC
ACHN renal = system: ACHN renal
BT-549 breast = system: BT-549 breast
CAKI-1 renal = system: CAKI-1 renal
COLO 205 colon = system: COLO 205 colon
DU-145 prostate = system: DU-145 prostate
EKVX NSCLC = system: EKVX NSCLC
HCC-2998 colon = system: HCC-2998 colon
HCT-116 colon = system: HCT-116 colon
HCT-15 colon = system: HCT-15 colon
HOP-92 NSCLC = system: HOP-92 NSCLC
HS 578T breast = system: HS 578T breast
HT29 colon = system: HT29 colon
IGROV1 ovarian = system: IGROV1 ovarian
KM12 colon = system: KM12 colon
LOX IMVI melanoma = system: LOX IMVI melanoma
M14 melanoma = system: M14 melanoma
MALME-3M melanoma = system: MALME-3M melanoma
MCF7 breast = system: MCF7 breast
MDA-MB-231 breast = system: MDA-MB-231 breast
MDA-MB-435 = system: MDA-MB-435
NCI-H226 lung = system: NCI-H226 lung
NCI-H23 lung = system: NCI-H23 lung
NCI-H460 lung = system: NCI-H460 lung
NCI-H522 lung = system: NCI-H522 lung
NCI/ADR-RES ovarian = system: NCI/ADR-RES ovarian
OVCAR-3 ovarian = system: OVCAR-3 ovarian
OVCAR-4 ovarian = system: OVCAR-4 ovarian
OVCAR-5 ovarian = system: OVCAR-5 ovarian
OVCAR-8 ovarian = system: OVCAR-8 ovarian
PC-3 prostate = system: PC-3 prostate
RPMI-8226 leukemia = system: RPMI-8226 leukemia
RXF 393 renal = system: RXF 393 renal
SF-268 CNS = system: SF-268 CNS
SF-295 CNS = system: SF-295 CNS
SF-539 CNS = system: SF-539 CNS
SK-MEL-2 melanoma = system: SK-MEL-2 melanoma
SK-MEL-28 melanoma = system: SK-MEL-28 melanoma
SK-MEL-5 melanoma = system: SK-MEL-5 melanoma
SK-OV-3 ovarian = system: SK-OV-3 ovarian
SN12C renal = system: SN12C renal
SNB-19 CNS = system: SNB-19 CNS
SNB-75 CNS = system: SNB-75 CNS
SW-620 colon = system: SW-620 colon
T-47D breast = system: T-47D breast
TK-10 renal = system: TK-10 renal
U251 CNS = system: U251 CNS
UACC-257 melanoma = system: UACC-257 melanoma
UACC-62 melanoma = system: UACC-62 melanoma
UO-31 renal = system: UO-31 renal
CCRF-CEM leukemia = system: CCRF-CEM leukemia
HL-60(TB) leukemia = system: HL-60(TB) leukemia
HOP-62 NSCLC = system: HOP-62 NSCLC

## CCCCCCCCc1cc[n+](CC(=O)c2ccc(Br)cc2)cc1
786-0 renal
  GI50: 1870 nM
  TGI: 3300 nM
A498 renal
  GI50: 4420 nM
  TGI: 18100 nM
A549 NSCLC
  GI50: 1770 nM
  TGI: 3250 nM
ACHN renal
  GI50: 1640 nM
  TGI: 2990 nM
BT-549 breast
  GI50: 2440 nM
  TGI: 5520 nM
CAKI-1 renal
  GI50: 1370 nM
  TGI: 2840 nM
COLO 205 colon
  GI50: 1090 nM
  TGI: 2280 nM
DU-145 prostate
  GI50: 1510 nM
  TGI: 2860 nM
EKVX NSCLC
  GI50: 1380 nM
  TGI: 2800 nM
HCC-2998 colon
  GI50: 1610 nM
  TGI: 2960 nM
HCT-116 colon
  GI50: 1190 nM
  TGI: 2490 nM
HCT-15 colon
  GI50: 1640 nM
  TGI: 3200 nM
HOP-92 NSCLC
  GI50: 1470 nM
  TGI: 4100 nM
HS 578T breast
  GI50: 1860 nM
  TGI: 3750 nM
HT29 colon
  GI50: 580 nM
  TGI: 1970 nM
IGROV1 ovarian
  GI50: 1090 nM
  TGI: 2450 nM
KM12 colon
  GI50: 1490 nM
  TGI: 2810 nM
LOX IMVI melanoma
  GI50: 1570 nM
  TGI: 2910 nM
M14 melanoma
  GI50: 1750 nM
  TGI: 3240 nM
MALME-3M melanoma
  GI50: 1690 nM
  TGI: 3500 nM
MCF7 breast
  GI50: 1520 nM
  TGI: 2840 nM
MDA-MB-231 breast
  GI50: 1450 nM
  TGI: 2850 nM
MDA-MB-435
  GI50: 1540 nM
  TGI: 2970 nM
NCI-H226 lung
  GI50: 1510 nM
  TGI: 3010 nM
NCI-H23 lung
  GI50: 1480 nM
  TGI: 2990 nM
NCI-H460 lung
  GI50: 1650 nM
  TGI: 3070 nM
NCI-H522 lung
  GI50: 1020 nM
  TGI: 2260 nM
NCI/ADR-RES ovarian
  GI50: 8770 nM
  TGI: 21900 nM
OVCAR-3 ovarian
  GI50: 1440 nM
  TGI: 2750 nM
OVCAR-4 ovarian
  GI50: 1110 nM
  TGI: 2310 nM
OVCAR-5 ovarian
  GI50: 1460 nM
  TGI: 2900 nM
OVCAR-8 ovarian
  GI50: 1680 nM
  TGI: 3220 nM
PC-3 prostate
  GI50: 1510 nM
  TGI: 3000 nM
RPMI-8226 leukemia
  GI50: 1770 nM
  TGI: 3790 nM
RXF 393 renal
  GI50: 1690 nM
  TGI: 3170 nM
SF-268 CNS
  GI50: 1580 nM
  TGI: 2920 nM
SF-295 CNS
  GI50: 1440 nM
  TGI: 2830 nM
SF-539 CNS
  GI50: 1610 nM
  TGI: 2960 nM
SK-MEL-2 melanoma
  GI50: 1610 nM
  TGI: 3030 nM
SK-MEL-28 melanoma
  GI50: 1640 nM
  TGI: 3040 nM
SK-MEL-5 melanoma
  GI50: 1510 nM
  TGI: 2890 nM
SK-OV-3 ovarian
  GI50: 1530 nM
  TGI: 2950 nM
SN12C renal
  GI50: 1550 nM
  TGI: 2980 nM
SNB-19 CNS
  GI50: 1590 nM
  TGI: 3310 nM
SNB-75 CNS
  GI50: 1280 nM
  TGI: 2540 nM
SW-620 colon
  GI50: 1410 nM
  TGI: 2770 nM
T-47D breast
  GI50: 1640 nM
  TGI: 3140 nM
TK-10 renal
  GI50: 1400 nM
  TGI: 2700 nM
U251 CNS
  GI50: 1470 nM
  TGI: 2790 nM
UACC-257 melanoma
  GI50: 1640 nM
  TGI: 3110 nM
UACC-62 melanoma
  GI50: 1440 nM
  TGI: 2760 nM
UO-31 renal
  GI50: 1490 nM
  TGI: 3190 nM

## Cc1cccc2c(C(=O)O[C@H](C(N)=O)[C@]3(C)CO3)cccc12
786-0 renal
  GI50: 1400 nM
  TGI: 8210 nM
A498 renal
  GI50: 13300 nM
  TGI: 41200 nM
A549 NSCLC
  GI50: 3660 nM
  TGI: > 100000 nM
ACHN renal
  GI50: 302 nM
  TGI: 2670 nM
BT-549 breast
  GI50: 1950 nM
  TGI: 6070 nM
CAKI-1 renal
  GI50: 1330 nM
  TGI: 11600 nM
CCRF-CEM leukemia
  GI50: 599 nM
COLO 205 colon
  GI50: 2370 nM
  TGI: 13400 nM
DU-145 prostate
  GI50: 1170 nM
  TGI: 5890 nM
EKVX NSCLC
  GI50: 3930 nM
  TGI: 13500 nM
HCC-2998 colon
  GI50: 1240 nM
  TGI: 3330 nM
HCT-116 colon
  GI50: 135 nM
  TGI: 5510 nM
HCT-15 colon
  GI50: 1690 nM
  TGI: 7700 nM
HL-60(TB) leukemia
  GI50: > 100000 nM
  TGI: > 100000 nM
HOP-62 NSCLC
  GI50: 1120 nM
  TGI: 4660 nM
HOP-92 NSCLC
  GI50: 2280 nM
  TGI: 11400 nM
HS 578T breast
  GI50: 3520 nM
  TGI: > 26800 nM
HT29 colon
  GI50: 693 nM
IGROV1 ovarian
  GI50: 817 nM
  TGI: > 22400 nM
KM12 colon
  GI50: 6650 nM
  TGI: 42900 nM
LOX IMVI melanoma
  GI50: 92.6 nM
  TGI: 1780 nM
M14 melanoma
  GI50: 938 nM
  TGI: 2880 nM
MALME-3M melanoma
  GI50: 3970 nM
  TGI: 10600 nM
MCF7 breast
  GI50: 342 nM
  TGI: > 100000 nM
MDA-MB-231 breast
  GI50: 1990 nM
  TGI: 6570 nM
MDA-MB-435
  GI50: 4750 nM
  TGI: 26800 nM
NCI-H226 lung
  GI50: 556 nM
  TGI: 2210 nM
NCI-H23 lung
  GI50: 1130 nM
  TGI: 3110 nM
NCI-H460 lung
  GI50: 4310 nM
  TGI: > 41500 nM
NCI-H522 lung
  GI50: 1390 nM
  TGI: 7820 nM
NCI/ADR-RES ovarian
  GI50: 904 nM
  TGI: 6340 nM
OVCAR-3 ovarian
  GI50: 2070 nM
  TGI: 13300 nM
OVCAR-4 ovarian
  GI50: 3390 nM
  TGI: > 55900 nM
OVCAR-5 ovarian
  GI50: 3120 nM
  TGI: > 34400 nM
OVCAR-8 ovarian
  GI50: 465 nM
  TGI: 26800 nM
PC-3 prostate
  GI50: 1830 nM
  TGI: > 22500 nM
RPMI-8226 leukemia
  GI50: 1710 nM
RXF 393 renal
  GI50: 3760 nM
  TGI: > 100000 nM
SF-268 CNS
  GI50: 2300 nM
  TGI: > 100000 nM
SF-295 CNS
  GI50: 2110 nM
  TGI: 19200 nM
SF-539 CNS
  GI50: 496 nM
  TGI: 1570 nM
SK-MEL-2 melanoma
  GI50: 1720 nM
  TGI: 8960 nM
SK-MEL-28 melanoma
  GI50: 1910 nM
  TGI: 5490 nM
SK-MEL-5 melanoma
  GI50: 1230 nM
  TGI: 3040 nM
SK-OV-3 ovarian
  GI50: 7480 nM
  TGI: 24400 nM
SN12C renal
  GI50: 271 nM
  TGI: 2580 nM
SNB-19 CNS
  GI50: 5230 nM
  TGI: > 61700 nM
SNB-75 CNS
  GI50: 2810 nM
  TGI: 13100 nM
SW-620 colon
  GI50: 351 nM
  TGI: > 79900 nM
T-47D breast
  GI50: 2750 nM
  TGI: 15900 nM
TK-10 renal
  GI50: 6020 nM
  TGI: 33300 nM
U251 CNS
  GI50: 690 nM
  TGI: 8070 nM
UACC-257 melanoma
  GI50: 4380 nM
  TGI: > 41800 nM
UACC-62 melanoma
  GI50: 481 nM
  TGI: 1750 nM
UO-31 renal
  GI50: 1490 nM
  TGI: 7150 nM
